Test results: patent publication US9932308B2, “Method for producing indoline compound” (UBE INDUSTRIES, LTD., priority 2014, dated 2018)
Entries after “also recorded” stand apart in the source; their conditions may differ.

Key:
Assay type in all cases: physicochemical
[1] = Thermal stability test of crystal of compound (1) (change in content of compound (E-3) on heating); conditions: for Content (Y) of compound (E-3) measured after test: after heating of the crystal at 70° C. for 192 hours; for Content (Y) of compound (E-3) measured after test / Content (X) of compound (E-3) measured before test: HPLC peak area ratio, 225 nm; for Content (X) of compound (E-3) measured before test: before heating; for Thermal stability of the crystal (conclusion in words) / [Y−X] (difference between Y and X, increase in content of compound (E-3)): heating at 70° C. for 192 hours
Experimental: In the present specification, a “γ-crystal with good stability” is identified by the thermal stability test described later and is one for which [Y−X] (i.e. a difference between Y and X) is less than 0.040% when the content of the compound (E-3) with respect to the total amount of the crystal is expressed as X % and the content of the compound (E-3) as measured after heating of the crystal at 70° C. for 192 hours is expressed as Y %. The crystal structure of the indoline compound is determined using a powder X-ray diffractometer.
The thermal stability test is a test for evaluating a change in the content of the compound (E-3) in the γ-crystal of the compound (1) caused when the crystal is heated at 70° C. for 192 hours. The pre-test content X (%) of the compound (E-3) with respect to the total amount of the crystal and the post-heating content Y (%) of the compound (E-3) with respect to the total amount of the crystal are measured, and the amount of change is calculated by the formula Y−X and expressed as [Y−X]. The content of the compound (E-3) may be on a mass basis or a volume basis. To measure the content of the compound (E-3) with increased accuracy, the measurement may be performed using high-performance liquid chromatography (HPLC). When the content of the compound (E-3) is measured using HPLC, the content can be measured as a value obtained as follows: a peak area of a peak observed in a chromatogram and attributed to the compound (E-3) is divided by the sum of the peak areas of all the peaks.
Compound analysis was performed in the same manner as in the above examples of step A, except that the measurement wavelength and the mobile phase were changed as follows.
Measurement wavelength: 225 nm
Mobile phase and measurement method: 1.0 g of ammonium formate and water were mixed to a volume of 1000 mL, and then 0.53 mL of formic acid was added to adjust the pH of the solution to 3.7. The measurement was performed as the volume ratio between the solution and acetonitrile was varied from 4:1 to 1:1.
(§1) The content of the compound (E-3) was expressed as a value calculated as follows: a peak area of a peak observed in a chromatogram and attributed to the compound (E-3) was divided by the sum of peak areas of all peaks observed in the chromatogram.

[2] = Crushing stability test of crystals of compound (1) (crystal form after crushing); conditions: crushed in a mortar with a pestle
Experimental: The γ-crystal of the compound (1) in the present specification may contain a solvent or the like in addition to the compound (1), as described in Patent Literature 3. In particular, “α-crystal”, “β-crystal”, and “γ-crystal” are each identified by a method described in Patent Literature 3 and, specifically, the identification is performed through measurement of powder X-ray diffraction.
Analysis equipment: Powder X-ray diffractometer, RINT-TTR III (manufactured by Rigaku Corporation)
(§2) An α-crystal, a β-crystal, and a γ-crystal were produced, and each of them was subjected to a photostability test and a crushing stability test under the following conditions.
Each crystal was put in a mortal and crushed with a pestle.

[3] = Photostability test of crystals of compound (1); conditions: 4000-lux light at 25° C., relative humidity 60%, 336 hours
Experimental: as §1, §2
Each crystal was left under irradiation of 4000-lux light at 25° C. and a relative humidity of 60% for 336 hours.

Row | Content (Y) of compound (E-3) measured after test [1] [%] | Content (X) of compound (E-3) measured before test [1] [%] | Thermal stability of the crystal (conclusion in words) [1] | [Y−X] (difference between Y and X, increase in content of compound (E-3)) [1] [%] | Stability to light (conclusion in words) [3] | Compound | Result of crushing stability test (phase transition) [2]
1 | 0.133 | 0.091 | unstable | 0.042 | – | C[C@H](Cc1cc2c(c(C(N)=O)c1)N(CCCO)CC2)NCCOc1ccccc1OCC(F)(F)F [Comparative Example C1, (−)-1-(3-hydroxypropyl)-5-[(2R)-2-({2-[2-(2,2,2-trifluoroethoxy)phenoxy]ethyl}amino)propyl]-2,3-dihydro-1H-indole-7-carboxamide, reference compound] | –
2 | – | – | – | – | good stability to light | C[C@H](Cc1cc2c(c(C(N)=O)c1)N(CCCO)CC2)NCCOc1ccccc1OCC(F)(F)F [γ-crystal, (−)-1-(3-hydroxypropyl)-5-[(2R)-2-({2-[2-(2,2,2-trifluoroethoxy)phenoxy]ethyl}amino)propyl]-2,3-dihydro-1H-indole-7-carboxamide] | phase transition was not observed; also recorded: does not undergo phase transition even when subjected to crushing
3 | 0.088 | 0.076 | stable | 0.012 | – | C[C@H](Cc1cc2c(c(C(N)=O)c1)N(CCCO)CC2)NCCOc1ccccc1OCC(F)(F)F [Example C2, (−)-1-(3-hydroxypropyl)-5-[(2R)-2-({2-[2-(2,2,2-trifluoroethoxy)phenoxy]ethyl}amino)propyl]-2,3-dihydro-1H-indole-7-carboxamide] | –
4 | 0.044 | 0.043 | stable | 0.001 | – | C[C@H](Cc1cc2c(c(C(N)=O)c1)N(CCCO)CC2)NCCOc1ccccc1OCC(F)(F)F [Example C1, (−)-1-(3-hydroxypropyl)-5-[(2R)-2-({2-[2-(2,2,2-trifluoroethoxy)phenoxy]ethyl}amino)propyl]-2,3-dihydro-1H-indole-7-carboxamide] | –
5 | 0.091 | 0.067 | stable | 0.024 | – | C[C@H](Cc1cc2c(c(C(N)=O)c1)N(CCCO)CC2)NCCOc1ccccc1OCC(F)(F)F [Example C4, (−)-1-(3-hydroxypropyl)-5-[(2R)-2-({2-[2-(2,2,2-trifluoroethoxy)phenoxy]ethyl}amino)propyl]-2,3-dihydro-1H-indole-7-carboxamide] | –
6 | – | – | – | – | – | C[C@H](Cc1cc2c(c(C(N)=O)c1)N(CCCO)CC2)NCCOc1ccccc1OCC(F)(F)F [β-crystal, (−)-1-(3-hydroxypropyl)-5-[(2R)-2-({2-[2-(2,2,2-trifluoroethoxy)phenoxy]ethyl}amino)propyl]-2,3-dihydro-1H-indole-7-carboxamide] | phase transition was not observed
7 | – | – | – | – | the most unstable | C[C@H](Cc1cc2c(c(C(N)=O)c1)N(CCCO)CC2)NCCOc1ccccc1OCC(F)(F)F [α-crystal, (−)-1-(3-hydroxypropyl)-5-[(2R)-2-({2-[2-(2,2,2-trifluoroethoxy)phenoxy]ethyl}amino)propyl]-2,3-dihydro-1H-indole-7-carboxamide] | transformed into a γ-crystal; also recorded: the most unstable
8 | 0.097 | 0.071 | stable | 0.026 | – | C[C@H](Cc1cc2c(c(C(N)=O)c1)N(CCCO)CC2)NCCOc1ccccc1OCC(F)(F)F [Example C3, (−)-1-(3-hydroxypropyl)-5-[(2R)-2-({2-[2-(2,2,2-trifluoroethoxy)phenoxy]ethyl}amino)propyl]-2,3-dihydro-1H-indole-7-carboxamide] | –
